# ChEMBL document CHEMBL5360631, “Creation of a Peptide Antagonist of the GFRAL-RET Receptor Complex for the Treatment of GDF15-Induced Malaise” (J Med Chem, 2023)
# pKd: −log10 of the molar value. Calls of active or inactive are those of the source. No cut-off for these calls is given here. Numbered stars: 1 amine (or outer) side, 2 acyl side, 3 side chain; on linkers, the order of the positions; unused ones are H or OH. Square brackets hold non-standard residues; d marks the D form. Side chains are listed from the residue outwards. Peptide text beside a SMILES is read from it. * marks the point of attachment. X4 = CN1/C(=C/C=C/C=C/C2=[N+](CCCCCC(=O)*)c3ccc(S(=O)(=O)[O-])cc3C2(C)C)C(C)(C)c2cc(S(=O)(=O)O)ccc21; X3 = C[C@@H](O)[C@@H](C(=O)[*:2])N(CCCn1nnc2c1-c1ccccc1CN([*:3])c1ccccc1-2)[*:1]; Biotin = O=C1N[C@H]2[C@H](CS[C@H]2CCCCC(=O)*)N1; GABA = NCCCC(=O)O
# How the values were obtained:
# [1] = molecular target: T1, GDNF family receptor alpha-like (Homo sapiens, UniProt Q6UXV0); test: Binding affinity to C-terminal polyhis-tagged recombinant human GFRAL (19 to 351 residues) expressed in HEK293 cells assessed as dissociation constant by flow cytometric analysis; format: cell-based
# T1 sequence (Q6UXV0 whole entry): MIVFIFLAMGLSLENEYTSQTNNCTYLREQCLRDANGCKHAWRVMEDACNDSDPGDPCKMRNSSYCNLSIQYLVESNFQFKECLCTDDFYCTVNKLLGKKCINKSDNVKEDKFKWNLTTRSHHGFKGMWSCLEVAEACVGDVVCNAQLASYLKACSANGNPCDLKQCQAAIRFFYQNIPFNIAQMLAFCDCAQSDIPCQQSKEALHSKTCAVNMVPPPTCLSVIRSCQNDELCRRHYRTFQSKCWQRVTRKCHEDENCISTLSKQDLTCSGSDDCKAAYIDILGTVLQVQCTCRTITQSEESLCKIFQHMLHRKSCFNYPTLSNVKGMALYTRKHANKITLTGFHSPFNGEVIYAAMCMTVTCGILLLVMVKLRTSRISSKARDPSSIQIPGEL
# [2] = molecular target: T1, GDNF family receptor alpha-like; test: Binding affinity to C-terminal polyhis-tagged recombinant human GFRAL (19 to 351 residues) expressed in HEK293 cells assessed as dissociation constant by SPR analysis
# [3] = Toxicity in Sprague-Dawley rat assessed as food intake at 300 to 3000 pmol, ICV measured for 24 hrs; conditions: in vivo, icv_or_intrathecal, dose 300-3000 pmol
# [4] = Toxicity in Sprague-Dawley rat assessed as kaolin intake at 300 to 3000 pmol, ICV measured for 24 hrs; conditions: in vivo, icv_or_intrathecal, dose 300-3000 pmol
# [5] = test system: Rattus norvegicus; test: Effect on pica behaviour in Sprague-Dawley rat assessed as reduction in GDF-15-induced kaolin intake pretreated intracerebroventricularly followed by GDF-15 treatment measured for 24 hrs; format: functional; conditions: dose 300-3000 pmol, route icv
# [6] = test system: Rattus norvegicus; test: Effect on GDF-15-induced anorexia in Sprague-Dawley rat at 300 to 3000 pmol pre-treated intracerebroventricularly followed by GDF-15 treatment measured for 24 hrs; format: functional; conditions: dose 300-3000 pmol, route icv
# [7] = Toxicity in Sprague-Dawley rat assessed as food intake at 30 to 100 nmol/kg, IP measured for 24 hrs; conditions: in vivo, dose 30-100 nmol/kg
# [8] = Toxicity in Sprague-Dawley rat assessed as kaolin intake at 30 to 100 nmol/kg, IP measured for 24 hrs; conditions: in vivo, dose 30-100 nmol/kg
# [9] = test system: Rattus norvegicus; test: Effect on GDF-15-induced anorexia in Sprague-Dawley rat at 30 to 100 nmol/kg pretreated intraperitoneally followed by GDF-15 treatment measured for 24 hrs; format: functional; conditions: dose 30-100 nmol/kg, route ip
# [10] = test system: Rattus norvegicus; test: Effect on pica behaviour in Sprague-Dawley rat assessed as reduction in GDF-15-induced kaolin intake at 100 nmol/kg pretreated intraperitoneally followed by GDF-15 treatment measured for 24 hrs; format: functional; conditions: route ip
# [11] = Toxicity in Sprague-Dawley rat assessed as kaolin intake at 100 nmol/kg, IP measured for 24 hrs; conditions: in vivo
# [12] = Toxicity in Sprague-Dawley rat assessed as food intake at 100 nmol/kg, IP measured for 24 hrs; conditions: in vivo
# [13] = test system: Rattus norvegicus; test: Effect on pica behaviour in Sprague-Dawley rat assessed as reduction in cisplatin-induced kaolin intake at 100 nmol/kg, IP pretreated for 15 mins followed by cisplatin treatment measured for 6 hrs; format: functional; conditions: time 6.25 hrs
# [14] = Toxicity in Sprague-Dawley rat assessed as drug tolerance at 100 nmol/kg, IP measured for 24 hrs; conditions: in vivo
# [15] = Toxicity in Sprague-Dawley rat assessed as drug tolerance at 100 nmol/kg, IP measured for 24 hrs in presence of Ondansetron; conditions: in vivo
# [16] = test system: Rattus norvegicus; test: Effect on pica behaviour in Sprague-Dawley rat assessed as food intake at 100 nmol/kg, IP measured for 24 hrs; format: functional
# [17] = test system: Rattus norvegicus; test: Effect on pica behaviour in Sprague-Dawley rat assessed as kaolin intake at 100 nmol/kg, IP measured for 24 hrs; format: functional
# [18] = test system: Rattus norvegicus; test: Effect on pica behaviour in Sprague-Dawley rat assessed as food intake at 100 nmol/kg, IP measured for 24 hrs in presence of Ondansetron; format: functional
# [19] = test system: Rattus norvegicus; test: Effect on pica behaviour in Sprague-Dawley rat assessed as kaolin intake at 100 nmol/kg, IP measured for 24 hrs in presence of Ondansetron; format: functional
# [20] = test system: Rattus norvegicus; test: Effect on pica behaviour in Sprague-Dawley rat assessed as reduction in cisplatin-induced kaolin intake at 100 nmol/kg, IP bid measured for 24 hrs; format: functional
# [21] = Toxicity in cisplatin-induced nausea and vomiting Sprague-Dawley rat model assessed as additive effect at 100 nmol/kg, IP bid measured for 24 hrs in presence of Ondansetron; conditions: in vivo
# [22] = test system: Rattus norvegicus; test: Effect on pica behaviour in Sprague-Dawley rat assessed as reduction in cisplatin-induced kaolin intake at 2 mg/kg, IP measured for 24 hrs; format: functional, organism-based
# [23] = test system: Rattus norvegicus; test: Effect on pica behaviour in Sprague-Dawley rat assessed as reduction in cisplatin-induced anorexia at 100 nmol/kg, IP bid measured for 24 hrs in presence of Ondansetron; format: functional
# [24] = molecular target: T1, GDNF family receptor alpha-like; test: Binding affinity to C-terminal polyhis-tagged recombinant human GFRAL (19 to 351 residues) expressed in HEK293 cells assessed as dissociation constant with increasing enzyme concentration by SPR analysis
smiles,measurement,setting,value
CC[C@H](C)[C@H](NC(=O)[C@H](CC(C)C)NC(=O)[C@H](CCC(=O)O)NC(=O)[C@H](CCC(=O)O)NC(=O)[C@H](CCCCN)NC(=O)[C@@H](NCCCn1nnc2c1-c1ccccc1CN(C(=O)CCCNC(=O)CCCCC[N+]1=C(/C=C/C=C/C=C3/N(C)c4ccc(S(=O)(=O)O)cc4C3(C)C)C(C)(C)c3cc(S(=O)(=O)[O-])ccc31)c1ccccc1-2)[C@@H](C)O)C(=O)N[C@@H](Cc1c[nH]cn1)C(=O)N[C@@H](C)C(=O)N[C@@H](Cc1c[nH]cn1)C(=O)N[C@@H](C)C(=O)N[C@@H](CC(=O)O)C(=O)N1CCC[C@H]1C(=O)N[C@@H](CCSC)C(=O)N[C@H](C(=O)N[C@@H](CC(C)C)C(=O)N[C@H](C(=O)N[C@@H](CCC(N)=O)C(=O)N[C@@H](CCCCN)C(=O)N[C@H](C(=O)N[C@@H](CC(=O)O)C(=O)N[C@H](C(=O)NCC(=O)N[C@H](C(=O)N[C@@H](CO)C(=O)N[C@@H](CC(C)C)C(=O)N[C@@H](CCC(N)=O)C(=O)N[C@H](C(=O)N[C@@H](Cc1ccc(O)cc1)C(=O)N[C@@H](CC(=O)O)C(=O)O)[C@@H](C)O)C(C)C)[C@@H](C)O)[C@@H](C)O)[C@@H](C)CC)C(C)C (H-[X3]([GABA-X4])KEELIHAHADPMVLIQKTDTGVSLQTYD-OH),pKd,[1],8.05
CC[C@H](C)[C@H](NC(=O)[C@H](CC(C)C)NC(=O)[C@H](CCC(=O)O)NC(=O)[C@H](CCC(=O)O)NC(=O)[C@H](CCCCN)NC(=O)[C@@H](N)[C@@H](C)O)C(=O)N[C@@H](Cc1c[nH]cn1)C(=O)N[C@@H](C)C(=O)N[C@@H](Cc1c[nH]cn1)C(=O)N[C@@H](C)C(=O)N[C@@H](CC(=O)O)C(=O)N1CCC[C@H]1C(=O)N[C@@H](CCSC)C(=O)N[C@H](C(=O)N[C@@H](CC(C)C)C(=O)N[C@H](C(=O)N[C@@H](CCC(N)=O)C(=O)N[C@@H](CCCCN)C(=O)N[C@H](C(=O)N[C@@H](CC(=O)O)C(=O)N[C@H](C(=O)NCC(=O)N[C@H](C(=O)N[C@@H](CO)C(=O)N[C@@H](CC(C)C)C(=O)N[C@@H](CCC(N)=O)C(=O)N[C@H](C(=O)N[C@@H](Cc1ccc(O)cc1)C(=O)N[C@@H](CC(=O)O)C(=O)O)[C@@H](C)O)C(C)C)[C@@H](C)O)[C@@H](C)O)[C@@H](C)CC)C(C)C (H-TKEELIHAHADPMVLIQKTDTGVSLQTYD-OH),pKd,[2],3.75
same,Activity,[3],Non-Toxic
same,Activity,[4],Non-Toxic
same,Activity,[5],Active
same,Activity,[6],inactive
same,Activity,[7],Non-Toxic
same,Activity,[8],Non-Toxic
same,Activity,[9],inactive
same,Activity,[10],Active
same,Activity,[11],Non-Toxic
same,Activity,[12],Non-Toxic
same,Activity,[13],Active
same,Activity,[14],Non-Toxic
same,Activity,[15],Non-Toxic
same,Activity,[16],inactive
same,Activity,[17],inactive
same,Activity,[18],inactive
same,Activity,[19],inactive
same,Activity,[20],Active
same,Activity,[21],Non-Toxic
same,Activity,[22],Active
same,Activity,[23],Active
CC[C@H](C)[C@H](NC(=O)[C@H](CC(C)C)NC(=O)[C@H](CCC(=O)O)NC(=O)[C@H](CCC(=O)O)NC(=O)[C@H](CCCCN)NC(=O)[C@@H](NC(=O)CCCC[C@@H]1SC[C@@H]2NC(=O)N[C@@H]21)[C@@H](C)O)C(=O)N[C@@H](Cc1c[nH]cn1)C(=O)N[C@@H](C)C(=O)N[C@@H](Cc1c[nH]cn1)C(=O)N[C@@H](C)C(=O)N[C@@H](CC(=O)O)C(=O)N1CCC[C@H]1C(=O)N[C@@H](CCSC)C(=O)N[C@H](C(=O)N[C@@H](CC(C)C)C(=O)N[C@H](C(=O)N[C@@H](CCC(N)=O)C(=O)N[C@@H](CCCCN)C(=O)N[C@H](C(=O)N[C@@H](CC(=O)O)C(=O)N[C@H](C(=O)NCC(=O)N[C@H](C(=O)N[C@@H](CO)C(=O)N[C@@H](CC(C)C)C(=O)N[C@@H](CCC(N)=O)C(=O)N[C@H](C(=O)N[C@@H](Cc1ccc(O)cc1)C(=O)N[C@@H](CC(=O)O)C(=O)O)[C@@H](C)O)C(C)C)[C@@H](C)O)[C@@H](C)O)[C@@H](C)CC)C(C)C (Biotin-TKEELIHAHADPMVLIQKTDTGVSLQTYD-OH),pKd,[24],7.13
